Settings: Liquid, Ebulliometric method (Recirculating still)

OCCO [1,2-ethanediol]
Settings | vapor or sublimation pressure [kPa]
412.81 K | 13.33
422.78 K | 20
430.26 K | 26.66
436.37 K | 33.33
441.5 K | 40
445.96 K | 46.66
449.93 K | 53.33
453.52 K | 60
456.78 K | 66.66
459.79 K | 73.33
462.58 K | 79.99
465.18 K | 86.66
467.62 K | 93.32
469.48 K | 98.66
470.02 K | 100.4

CCO [ethanol]
Settings | vapor or sublimation pressure [kPa]
329.67 K | 40
336.06 K | 53.33
341.23 K | 66.66
345.59 K | 79.99
349.38 K | 93.32
351.03 K | 99.74

O [water]
Settings | vapor or sublimation pressure [kPa]
349.09 K | 40
356.17 K | 53.33
361.87 K | 66.66
366.69 K | 79.99
370.88 K | 93.32
372.76 K | 100

Reference: the NIST ThermoML archive (doi:10.1021/je2008704)
